{"source": "patent US10246420B2", "about": "“Pyrazole derivatives” (BAYER CROPSCIENCE AKTIENGESELLSCHAFT, priority 2014, dated 2019)", "data": [{"system": "not listed separately", "experiment": "Log P by HPLC on reversed phase columns (EEC directive 79/831 Annex V.A8)", "type": "physicochemical", "conditions": "not given", "procedure": "(§1) Measurement of Log P values was performed according to EEC directive 79/831 Annex V.A8 by HPLC (High Performance Liquid Chromatography) on reversed phase columns with the following methods:\n(§2) [^a] Log P value is determined by measurement of LC-UV, in an acidic range, with 0.1% formic acid in water and acetonitrile as eluent (linear gradient from 10% acetonitrile to 95% acetonitrile).\n(§3) [^b] Log P value is determined by measurement of LC-UV, in a neutral range, with 0.001 molar ammonium acetate solution in water and acetonitrile as eluent (linear gradient from 10% acetonitrile to 95% acetonitrile).\n(§4) [^c] Log P value is determined by measurement of LC-UV, in an acidic range, with 0.1% phosphoric acid and acetonitrile as eluent (linear gradient from 10% acetonitrile to 95% acetonitrile).\n(§5) Calibration was done with straight-chain alkan-2-ones (with 3 to 16 carbon atoms) with known Log P values (measurement of Log P values using retention times with linear interpolation between successive alkanones). Lambda-max-values were determined using UV-spectra from 200 nm to 400 nm and the peak values of the chromatographic signals.", "values": [{"molecule": "C#CCOc1cc(C)ccc1Nc1c(-c2ccc(Cl)cc2Cl)c(C)nn1C", "note": "[Example I-58]", "LogP [a]": "4.30^[a]"}, {"molecule": "C#CCOc1cc(F)cc(F)c1Nc1c(-c2c(F)cc(F)cc2F)c(C)nn1C", "note": "[Example I-59]", "LogP [a]": "3.10^[a]"}, {"molecule": "C#CCOc1cc(F)cc(F)c1Nc1c(-c2c(F)cc(Cl)cc2F)c(C)nn1C", "note": "[Example I-60]", "LogP [a]": "3.49^[a]"}, {"molecule": "C#CCOc1cc(F)cc(F)c1Nc1c(-c2c(F)cc(OC)cc2F)c(C)nn1C", "note": "[Example I-61]", "LogP [a]": "3.00^[a]"}, {"molecule": "C#CCOc1cc(F)c(Nc2c(-c3c(F)cc(OC)cc3F)c(C)nn2C)c(F)c1", "note": "[Example I-62]", "LogP [a]": "2.85^[a]"}, {"molecule": "C#CCOc1cc(F)c(-c2c(C)nn(C)c2Nc2c(F)cc(F)cc2OCC#C)c(F)c1", "note": "[Example I-63]", "LogP [a]": "2.99^[a]"}, {"molecule": "C#CCOc1cccc(Cl)c1Nc1c(-c2ccc(F)cc2Cl)c(C)nn1C", "note": "[Example I-64]", "LogP [a]": "3.56^[a]"}, {"molecule": "C=CCOc1cccc(Cl)c1Nc1c(-c2ccc(F)cc2Cl)c(C)nn1C", "note": "[Example I-65]", "LogP [a]": "4.06^[a]"}, {"molecule": "C#CCOc1cccc(Cl)c1Nc1c(-c2ccc(Cl)cc2Cl)c(C)nn1C", "note": "[Example I-66]", "LogP [a]": "3.99^[a]"}, {"molecule": "C#CCOc1cccc(Cl)c1Nc1c(-c2ccc(F)cc2F)c(C)nn1C", "note": "[Example I-67]", "LogP [a]": "3.26^[a]"}, {"molecule": "C=CCOc1cc(F)c(N=C=S)c(F)c1", "note": "[Z-ii-01]", "LogP [a]": "4.54^[a]"}, {"molecule": "C#CCOc1cc(F)c(N=C=S)c(F)c1", "note": "[Z-ii-02]", "LogP [a]": "3.86^[a]"}, {"molecule": "C=CCOc1ccc(N=C=S)cc1", "note": "[Z-ii-05]", "LogP [a]": 4.06, "LogP [b]": 4.09}, {"molecule": "C=CCOc1ccc(N=C=S)cc1F", "note": "[Z-ii-06]", "LogP [a]": "4.06^[a]"}, {"molecule": "C=CCOc1ccc(F)c(N=C=S)c1", "note": "[Z-ii-07]", "LogP [a]": "4.30^[a]"}, {"molecule": "C#CCOc1ccc(F)c(N=C=S)c1", "note": "[Z-ii-08]", "LogP [a]": "3.62^[a]"}, {"molecule": "C#CCOc1cc(F)c(N=C=S)cc1F", "note": "[Z-ii-09]", "LogP [a]": "3.64^[a]"}, {"molecule": "C=CCOc1cc(F)c(N=C=S)cc1F", "note": "[Z-ii-10]", "LogP [a]": "4.24^[a]"}, {"molecule": "C#CCOc1ccc(N=C=S)cc1F", "note": "[Z-ii-11]", "LogP [a]": "3.47^[a]"}, {"molecule": "C#CCOc1ccc(N=C=S)c(Cl)c1", "note": "[Z-ii-12]", "LogP [a]": 3.99, "LogP [b]": 3.96}, {"molecule": "C=CCOc1ccc(N=C=S)c(Cl)c1", "note": "[Z-ii-13]", "LogP [a]": "4.72^[a]; 4.72^[b]", "LogP [b]": "4.72^[a]; 4.72^[b]"}, {"molecule": "C#CCOc1cccc(Cl)c1N=C=S", "note": "[Z-ii-14]", "LogP [a]": "3.86^[a]"}, {"molecule": "C=CCOc1ccc(F)cc1N=C=S", "note": "[Z-ii-16]", "LogP [a]": "4.24^[a]"}, {"molecule": "C#CCOc1ccc(F)cc1N=C=S", "note": "[Z-ii-17]", "LogP [a]": "3.62^[a]"}, {"molecule": "C#CCOc1cc(C)ccc1N=C=S", "note": "[Z-ii-18]", "LogP [a]": "3.82^[a]"}, {"molecule": "C=CCOc1ccc(C#N)cc1N=C=S", "note": "[Z-ii-19]", "LogP [a]": "3.71^[a]"}, {"molecule": "C#CCOc1ccc(C#N)cc1N=C=S", "note": "[Z-ii-20]", "LogP [a]": "3.13^[a]"}, {"molecule": "C#CCOc1cc(F)cc(F)c1NC(=S)C(C(C)=O)c1ccc(F)cc1Cl", "note": "(stereo not shown) [Z-ix-03]", "LogP [a]": "3.65^[a]"}]}, {"system": "not listed separately", "experiment": "Log P by HPLC on reversed phase columns (EEC directive 79/831 Annex V.A8)", "type": "physicochemical", "conditions": "LC-UV, acidic range, 0.1% formic acid in water and acetonitrile as eluent; read-out: LogP [a]", "procedure": "as §1, §2, §3, §4, §5", "values": [{"molecule": "C#CCOc1cc(F)cc(F)c1N=C=S", "note": "[Z-ii-03, 3,5-difluoro-2-isothiocyanatophenyl prop-2-yn-1-yl ether]", "chromatographic logP": 3.68}, {"molecule": "C=CCOc1ccc(CC(C)=O)c(F)c1", "note": "[Z-iv-01, 1-[4-(allyloxy)-2-fluorophenyl]acetone]", "chromatographic logP": 2.6}, {"molecule": "COc1ccc(CC(C)=O)c(F)c1", "note": "[Z-iv-02, 1-(2-fluoro-4-methoxyphenyl)acetone]", "chromatographic logP": 1.95}]}, {"system": "not listed separately", "experiment": "Log P by HPLC on reversed phase columns (EEC directive 79/831 Annex V.A8)", "type": "physicochemical", "conditions": "pH 2.3; read-out: log P (pH 2.3)", "procedure": "as §1, §2, §3, §4, §5", "values": [{"molecule": "C#CCOc1cc(F)cc(F)c1N=C=S", "note": "[Z-ii-03, 3,5-difluoro-2-isothiocyanatophenyl prop-2-yn-1-yl ether]", "chromatographic logP": 3.72}]}, {"system": "not listed separately", "experiment": "Log P by HPLC on reversed phase columns (EEC directive 79/831 Annex V.A8)", "type": "physicochemical", "conditions": "reversed phase HPLC columns, LC-UV, acidic range, 0.1% formic acid in water and acetonitrile as eluent; read-out: LogP [a]", "procedure": "as §1, §2, §3, §4, §5", "values": [{"molecule": "C#CCOc1cc(F)cc(F)c1Nc1c(-c2ccc(F)cc2Cl)c(C)nn1C", "note": "[Example I-01]", "chromatographic logP": 3.26}]}, {"system": "not listed separately", "experiment": "Log P by HPLC on reversed phase columns (EEC directive 79/831 Annex V.A8)", "type": "physicochemical", "conditions": "reversed phase HPLC columns, LC-UV, acidic range, 0.1% phosphoric acid and acetonitrile as eluent; read-out: LogP [c]", "procedure": "as §1, §2, §3, §4, §5", "values": [{"molecule": "C#CCOc1cc(F)cc(F)c1Nc1c(-c2ccc(F)cc2Cl)c(C)nn1C", "note": "[Example I-01]", "chromatographic logP": 3.1}]}, {"system": "Alternaria solani", "experiment": "Biological Example C1 (comparative): in vivo preventive test on Alternaria solani (tomatoes)", "conditions": "rate of application 50 ppm, evaluated 3 days after inoculation", "procedure": "(§6) To produce a suitable preparation of active compound, 1 part by weight of active compound is mixed with the stated amounts of solvent and emulsifier, and the concentrate is diluted with water to the desired concentration.\nTo test for preventive activity, young plants are sprayed with the preparation of active compound at the stated rate of application. After the spray coating has dried on, the plants are inoculated with an aqueous spore suspension of Alternaria solani. The plants are then placed in an incubation cabinet at approximately 20° C. and a relative atmospheric humidity of 100%.\nThe test is evaluated 3 days after the inoculation. 0% means an efficacy which corresponds to that of the untreated control while an efficacy of 100% means that no disease is observed.", "units": {"Efficacy in %": "%"}, "values": [{"molecule": "C#CCOc1cc(F)cc(F)c1Nc1c(-c2ccc(F)cc2Cl)c(C)nn1C", "note": "[Example I-01]", "Efficacy in %": 96}, {"molecule": "CCCOc1cc(F)cc(F)c1Nc1c(-c2ccc(F)cc2Cl)c(C)nn1C", "note": "[drawing 18, reference compound]", "Efficacy in %": 40}]}, {"system": "Phakopsora pachyrhizi", "experiment": "Biological Example C2 (comparative): in vivo preventive test on Phakopsora pachyrhizi (soybeans)", "conditions": "rate of application 250 ppm, evaluated 7 days after inoculation", "procedure": "as §6\nTo test for preventive activity, young plants are sprayed with the preparation of active compound at the stated rate of application. After the spray coating has dried on, the plants are inoculated with an aqueous spore suspension of the causal agent of soybean rust (Phakopsora pachyrhizi) and stay for 24 h without light in an incubation cabinet at approximately 24° C. and a relative atmospheric humidity of 95%. The plants remain in the incubation cabinet at approximately 24° C. and a relative atmospheric humidity of approximately 80% and a day/night interval of 12 h.\n(§7) The test is evaluated 7 days after the inoculation. 0% means an efficacy which corresponds to that of the untreated control, while an efficacy of 100% means that no disease is observed.", "units": {"Efficacy in %": "%"}, "values": [{"molecule": "C#CCOc1cc(F)cc(F)c1Nc1c(-c2ccc(F)cc2Cl)c(C)nn1C", "note": "[Example I-01]", "Efficacy in %": 94}, {"molecule": "CCCOc1cc(F)cc(F)c1Nc1c(-c2ccc(F)cc2Cl)c(C)nn1C", "note": "[drawing 20, reference compound]", "Efficacy in %": 53}]}, {"system": "Sphaerotheca fuliginea", "experiment": "Biological Example C3 (comparative): in vivo preventive test on Sphaerotheca fuliginea (cucumbers)", "conditions": "rate of application 50 ppm, evaluated 7 days after inoculation", "procedure": "as §6\nTo test for preventive activity, young plants are sprayed with the preparation of active compound at the stated rate of application. After the spray coating has dried on, the plants are inoculated with an aqueous spore suspension of Sphaerotheca fuliginea. The plants are then placed in a greenhouse at approximately 23° C. and a relative atmospheric humidity of approximately 70%.\nas §7", "units": {"Efficacy in %": "%"}, "values": [{"molecule": "C#CCOc1cc(F)cc(F)c1Nc1c(-c2ccc(F)cc2Cl)c(C)nn1C", "note": "[Example I-01]", "Efficacy in %": 98}, {"molecule": "CCCOc1cc(F)cc(F)c1Nc1c(-c2ccc(F)cc2Cl)c(C)nn1C", "note": "[drawing 22, reference compound]", "Efficacy in %": 10}]}]}
